The record followed here is publication PMC11345841, “Exploring 2-Sulfonylpyrimidine Warheads as Acrylamide Surrogates for Targeted Covalent Inhibition: A BTK Story” (Journal of Medicinal Chemistry, 2024).

In one test the target is T1, FLT3 (Homo sapiens, UniProt P36888).
T1 construct: purchased Eurofins DiscoverX KINOMEscan (scanTK)
T1 sequence (P36888 27-993): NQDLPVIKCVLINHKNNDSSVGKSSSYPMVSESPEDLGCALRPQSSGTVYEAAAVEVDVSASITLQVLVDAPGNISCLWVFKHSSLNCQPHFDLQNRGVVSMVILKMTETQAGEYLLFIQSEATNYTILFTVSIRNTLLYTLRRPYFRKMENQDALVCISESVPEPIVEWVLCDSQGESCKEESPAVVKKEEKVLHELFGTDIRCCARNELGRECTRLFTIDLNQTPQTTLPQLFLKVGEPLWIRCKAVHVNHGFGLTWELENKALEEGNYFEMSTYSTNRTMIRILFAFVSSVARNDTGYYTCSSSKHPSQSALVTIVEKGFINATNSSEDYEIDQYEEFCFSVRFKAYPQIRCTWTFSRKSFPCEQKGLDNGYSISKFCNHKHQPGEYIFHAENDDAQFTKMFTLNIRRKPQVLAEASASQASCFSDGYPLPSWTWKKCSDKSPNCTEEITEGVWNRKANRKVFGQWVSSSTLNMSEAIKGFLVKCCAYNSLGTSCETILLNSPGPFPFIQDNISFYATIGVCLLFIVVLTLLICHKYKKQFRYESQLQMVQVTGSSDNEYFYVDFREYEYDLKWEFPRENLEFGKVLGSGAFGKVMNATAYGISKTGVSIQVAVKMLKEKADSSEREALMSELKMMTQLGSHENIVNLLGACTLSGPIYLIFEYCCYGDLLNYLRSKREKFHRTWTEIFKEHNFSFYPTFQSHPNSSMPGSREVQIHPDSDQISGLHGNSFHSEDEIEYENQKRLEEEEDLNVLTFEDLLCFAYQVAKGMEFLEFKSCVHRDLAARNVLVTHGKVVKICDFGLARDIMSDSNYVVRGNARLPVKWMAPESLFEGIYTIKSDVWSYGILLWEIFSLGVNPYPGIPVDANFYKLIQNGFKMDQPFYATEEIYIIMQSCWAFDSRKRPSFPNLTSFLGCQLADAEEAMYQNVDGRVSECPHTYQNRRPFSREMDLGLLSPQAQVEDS
Briefly: KINOMEscan ScanTK. In kind it is binding.

For another test, the target named is T2, PYK2 (Homo sapiens, UniProt Q14289).
T2 construct: purchased Eurofins DiscoverX KINOMEscan (scanTK)
Briefly: KINOMEscan ScanTK. In kind it is binding.

The target in a further test is T3, KIT(L576P) (Homo sapiens, UniProt P10721, L576P).
T3 construct: purchased Eurofins DiscoverX KINOMEscan (scanTK)
Briefly: KINOMEscan ScanTK. In kind it is binding. The note with it: for difference in %Control versus Ib at 1 µM: read-out: % difference (compound - Ib %Control).

The next test deals with T4, KIT(V559D) (Homo sapiens, UniProt P10721, V559D).
T4 construct: purchased Eurofins DiscoverX KINOMEscan (scanTK)
Description: KINOMEscan ScanTK. In kind it is binding.

Another test addresses T5, CSF1R (Homo sapiens, UniProt P07333).
T5 construct: purchased Eurofins DiscoverX KINOMEscan (scanTK)
Description: KINOMEscan ScanTK. Type of test: binding.

For a further test, the target named is T6, SYK (Homo sapiens, UniProt P43405).
T6 construct: purchased Eurofins DiscoverX KINOMEscan (scanTK)
Briefly: KINOMEscan ScanTK. In kind it is binding.

In a further test the target is T7, KIT(V559D,T670I) (Homo sapiens, UniProt P10721, T670I/V559D).
T7 construct: purchased Eurofins DiscoverX KINOMEscan (scanTK)
Description: KINOMEscan ScanTK. In kind it is binding.

For another test, the target named is T8, TEC (Homo sapiens, UniProt P42680).
T8 construct: purchased Eurofins DiscoverX KINOMEscan (scanTK)
T8 sequence (P42680 1-631): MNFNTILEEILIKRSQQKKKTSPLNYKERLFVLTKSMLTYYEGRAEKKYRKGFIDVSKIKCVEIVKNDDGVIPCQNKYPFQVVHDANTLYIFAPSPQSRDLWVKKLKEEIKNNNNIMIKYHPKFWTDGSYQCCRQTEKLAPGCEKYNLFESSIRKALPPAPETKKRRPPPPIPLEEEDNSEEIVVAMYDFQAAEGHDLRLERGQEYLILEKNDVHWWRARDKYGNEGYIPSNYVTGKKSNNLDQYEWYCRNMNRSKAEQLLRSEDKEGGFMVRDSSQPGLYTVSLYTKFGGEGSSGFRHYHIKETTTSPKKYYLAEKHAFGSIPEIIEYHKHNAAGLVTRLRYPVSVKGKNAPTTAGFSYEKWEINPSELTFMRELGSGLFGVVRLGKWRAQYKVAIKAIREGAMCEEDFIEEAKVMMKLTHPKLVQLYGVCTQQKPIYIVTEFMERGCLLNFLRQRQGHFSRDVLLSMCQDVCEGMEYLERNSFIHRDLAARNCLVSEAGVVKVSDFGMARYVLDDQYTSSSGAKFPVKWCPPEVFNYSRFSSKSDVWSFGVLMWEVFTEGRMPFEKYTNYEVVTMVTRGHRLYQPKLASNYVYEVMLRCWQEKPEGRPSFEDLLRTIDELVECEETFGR
Description: KINOMEscan ScanTK. Type of test: binding.

For another test, the system named is TMD8 cells. Description: Annexin V/propidium iodide staining (apoptosis, viability). Type of test: cell-based, human. The conditions noted are these: 72 h. On the procedure: We tested the effects of compounds in TMD8 cells, derived from an activated B-cell DLBCL. These cells have constitutive signaling via the BCR and additionally carry MYD88^L265P and CD79B mutations which give rise to My-T-BCR complex. […] Apoptosis was quantified after exposure of cells to compounds for 72 h using annexin V/PI staining and flow cytometry (Figure 3E, Figure S4).
Cells were washed in phosphate-buffered saline and resuspended in 300 μL of annexin V staining buffer (10 mM HEPES HCl (pH 7.4), 140 mM NaCl, 2.5 mM CaCl2) supplemented with 2.5 μg/mL fluorescein isothiocyanate-labeled annexin V (kind gift from Dr Patrick Duriez, Protein Core Facility, University of Southampton) and 12.5 μM propidium iodide (Invitrogen). Cells were analyzed by flow cytometry (Canto II system, BD Biosciences) and the percentage of viable cells was determined by calculating the proportion of Annexin V-/PI-cells as a percentage of all cells (results for untreated cells at 72 h set to 100%).

Structures are written as SMILES. Like-named read-outs stand apart in the source and are kept apart here.

T4 sequence (P10721 26-976 V559D): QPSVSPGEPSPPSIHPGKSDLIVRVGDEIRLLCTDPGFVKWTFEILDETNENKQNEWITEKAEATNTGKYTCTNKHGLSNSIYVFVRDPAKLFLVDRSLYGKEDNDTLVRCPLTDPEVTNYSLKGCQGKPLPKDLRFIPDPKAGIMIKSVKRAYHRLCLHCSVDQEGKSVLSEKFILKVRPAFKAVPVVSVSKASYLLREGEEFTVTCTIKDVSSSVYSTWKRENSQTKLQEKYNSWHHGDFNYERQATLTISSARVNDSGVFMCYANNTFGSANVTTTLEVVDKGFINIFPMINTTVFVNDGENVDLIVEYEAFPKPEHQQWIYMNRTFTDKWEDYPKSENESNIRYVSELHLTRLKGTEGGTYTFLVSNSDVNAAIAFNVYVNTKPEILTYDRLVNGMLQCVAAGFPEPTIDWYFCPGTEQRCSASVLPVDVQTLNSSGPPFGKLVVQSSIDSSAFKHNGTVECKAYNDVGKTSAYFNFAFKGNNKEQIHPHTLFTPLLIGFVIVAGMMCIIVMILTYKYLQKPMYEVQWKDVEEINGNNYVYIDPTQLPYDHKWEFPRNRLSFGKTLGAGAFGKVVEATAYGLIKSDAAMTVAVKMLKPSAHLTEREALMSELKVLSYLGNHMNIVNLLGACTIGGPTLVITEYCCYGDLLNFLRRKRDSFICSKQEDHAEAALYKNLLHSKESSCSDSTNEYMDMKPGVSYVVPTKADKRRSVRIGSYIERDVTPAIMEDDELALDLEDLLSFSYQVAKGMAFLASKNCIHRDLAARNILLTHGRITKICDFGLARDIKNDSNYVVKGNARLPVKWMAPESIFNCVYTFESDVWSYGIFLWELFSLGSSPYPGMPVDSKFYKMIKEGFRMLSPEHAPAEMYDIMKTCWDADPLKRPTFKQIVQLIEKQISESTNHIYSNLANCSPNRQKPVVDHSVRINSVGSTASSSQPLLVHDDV
T5 sequence (P07333 20-972): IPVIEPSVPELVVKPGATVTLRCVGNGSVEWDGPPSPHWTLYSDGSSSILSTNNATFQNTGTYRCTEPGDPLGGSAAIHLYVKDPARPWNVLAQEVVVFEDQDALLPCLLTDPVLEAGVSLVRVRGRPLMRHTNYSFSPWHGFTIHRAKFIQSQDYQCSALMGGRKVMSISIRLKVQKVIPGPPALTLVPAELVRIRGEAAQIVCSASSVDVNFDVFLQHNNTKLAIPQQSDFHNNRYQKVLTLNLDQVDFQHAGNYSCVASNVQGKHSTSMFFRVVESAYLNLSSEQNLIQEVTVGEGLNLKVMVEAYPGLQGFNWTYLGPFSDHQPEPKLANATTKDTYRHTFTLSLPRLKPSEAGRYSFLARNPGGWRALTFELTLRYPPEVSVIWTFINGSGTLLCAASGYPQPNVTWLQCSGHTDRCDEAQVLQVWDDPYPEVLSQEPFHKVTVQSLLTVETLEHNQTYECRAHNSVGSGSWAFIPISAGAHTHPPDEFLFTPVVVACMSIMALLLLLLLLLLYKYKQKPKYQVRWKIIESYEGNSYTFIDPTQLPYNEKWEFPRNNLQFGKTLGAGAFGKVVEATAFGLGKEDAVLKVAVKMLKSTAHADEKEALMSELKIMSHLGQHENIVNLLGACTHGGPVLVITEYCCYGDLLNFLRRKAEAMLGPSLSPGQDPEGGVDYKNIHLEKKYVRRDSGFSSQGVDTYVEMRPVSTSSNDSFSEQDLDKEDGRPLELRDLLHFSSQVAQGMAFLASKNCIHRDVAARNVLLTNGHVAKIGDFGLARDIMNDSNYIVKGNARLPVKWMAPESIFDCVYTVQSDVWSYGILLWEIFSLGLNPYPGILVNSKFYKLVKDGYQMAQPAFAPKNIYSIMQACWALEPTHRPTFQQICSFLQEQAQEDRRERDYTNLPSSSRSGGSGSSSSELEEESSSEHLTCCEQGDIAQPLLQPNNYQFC
T2 sequence (Q14289 whole entry): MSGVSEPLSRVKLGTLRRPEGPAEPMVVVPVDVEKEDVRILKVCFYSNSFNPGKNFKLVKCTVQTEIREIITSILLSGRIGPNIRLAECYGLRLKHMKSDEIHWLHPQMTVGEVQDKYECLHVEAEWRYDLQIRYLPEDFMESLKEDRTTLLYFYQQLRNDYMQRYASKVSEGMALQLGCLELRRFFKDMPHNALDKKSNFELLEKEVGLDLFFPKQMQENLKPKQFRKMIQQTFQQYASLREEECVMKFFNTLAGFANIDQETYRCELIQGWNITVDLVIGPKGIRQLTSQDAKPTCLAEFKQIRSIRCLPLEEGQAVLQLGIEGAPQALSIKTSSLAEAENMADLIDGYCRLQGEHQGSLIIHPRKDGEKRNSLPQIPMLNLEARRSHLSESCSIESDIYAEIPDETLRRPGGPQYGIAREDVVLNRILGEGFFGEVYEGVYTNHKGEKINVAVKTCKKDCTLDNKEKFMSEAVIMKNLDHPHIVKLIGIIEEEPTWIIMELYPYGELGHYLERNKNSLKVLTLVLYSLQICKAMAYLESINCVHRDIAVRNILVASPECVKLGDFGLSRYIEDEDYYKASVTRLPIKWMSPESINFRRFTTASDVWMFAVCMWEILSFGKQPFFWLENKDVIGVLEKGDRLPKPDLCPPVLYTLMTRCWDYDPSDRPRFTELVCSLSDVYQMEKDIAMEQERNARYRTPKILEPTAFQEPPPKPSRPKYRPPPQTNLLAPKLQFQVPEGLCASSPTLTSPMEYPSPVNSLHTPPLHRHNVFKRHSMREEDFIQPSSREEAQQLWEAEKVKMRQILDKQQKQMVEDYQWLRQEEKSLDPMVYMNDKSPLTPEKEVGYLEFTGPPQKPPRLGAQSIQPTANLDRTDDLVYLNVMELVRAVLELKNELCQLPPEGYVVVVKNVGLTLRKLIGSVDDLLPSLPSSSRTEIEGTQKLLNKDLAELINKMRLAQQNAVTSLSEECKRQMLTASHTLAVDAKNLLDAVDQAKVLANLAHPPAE
T7 sequence (P10721 26-976 V559D/T670I): as the sequence (P10721 26-976 V559D) above, with T645I counted along it
T3 sequence (P10721 26-976 L576P): as the sequence (P10721 26-976 V559D) above, with D534V, L551P counted along it

With `C=CC(=O)N1CCC[C@@H](n2nc(-c3ccc(Oc4ccccc4)cc3)c3c(N)ncnc32)C1` [Compound 1g, Ibrutinib, reference compound], the remaining binding at 1 µM on FLT3 (@1000nM, read-out: %Control) was found to be 33%; at FLT3 (read-out: %Control @1000nM) it was 33%; at PYK2 (@1000nM, read-out: %Control) it was 100%; on PYK2 (read-out: %Control @1000nM) it was 100%; at KIT(L576P) (@1000nM, read-out: %Control), 32%; at KIT(L576P) (read-out: %Control @1000nM), 32%. Further, the remaining binding at 1 µM was 27% at KIT(V559D) (@1000nM, read-out: %Control); 27% on KIT(V559D) (read-out: %Control @1000nM); 80% on CSF1R (@1000nM, read-out: %Control); 80% on CSF1R (read-out: %Control @1000nM); 91% on SYK (@1000nM, read-out: %Control); 91% at SYK (read-out: %Control @1000nM). The remaining binding at 1 µM at KIT(V559D,T670I) (@1000nM, read-out: %Control) turned out to be 68%; on KIT(V559D,T670I) (read-out: %Control @1000nM), 68%; at TEC (@1000nM, read-out: %Control), 20%; at TEC (read-out: %Control @1000nM) it was 20%.

On FLT3 (@1000nM), `Cc1cnc(S(C)(=O)=O)nc1N1CCCC(n2nc(-c3ccc(Oc4ccccc4)cc3)c3c(N)ncnc32)C1` (centres unmarked) [Compound 8a, 1-(1-(5-Methyl-2-(methylsulfonyl)pyrimidin-4-yl)piperidin-3-yl)-3-(4-phenoxyphenyl)-1H-pyrazolo[3,4-d]pyrimidin-4-amine] came in with a difference in %Control from compound Ib at 1 µM of 21%. Further, the remaining binding at 1 µM at FLT3 (@1000nM, read-out: %Control) is 54%; on FLT3 (read-out: %Control @1000nM), 54%; on PYK2 (@1000nM, read-out: %Control) it was 92%; at PYK2 (read-out: %Control @1000nM), 92%; on KIT(L576P) (@1000nM, read-out: %Control), 44%; on KIT(L576P) (read-out: %Control @1000nM), 44%. The remaining binding at 1 µM on KIT(V559D) (@1000nM, read-out: %Control) is 37%; at KIT(V559D) (read-out: %Control @1000nM) it was 37%; on CSF1R (@1000nM, read-out: %Control), 92%; on CSF1R (read-out: %Control @1000nM), 92%; on SYK (@1000nM, read-out: %Control) it was 84%; at SYK (read-out: %Control @1000nM) it was 84%. The remaining binding at 1 µM was 68% on KIT(V559D,T670I) (@1000nM, read-out: %Control); 68% on KIT(V559D,T670I) (read-out: %Control @1000nM); 27% on TEC (@1000nM, read-out: %Control); 27% at TEC (read-out: %Control @1000nM). The difference in %Control versus Ib at 1 µM on KIT(L576P) (@1000nM) came out at 12%. Moreover, the “fold lower apoptotic potency than Ibrutinib” value in the test with TMD8 cells was approximately 10 fold. In addition, in the test on TMD8 cells, the induction of apoptosis result is given as “induced apoptosis”. The results for the difference in %Control versus compound Ib at 1 µM on CSF1R (@1000nM), on SYK (@1000nM) and on KIT(V559D,T670I) (@1000nM) were 12%, -7% and 0%, respectively.

As for `COC(=O)c1cnc(S(C)(=O)=O)nc1N1CCCC(n2nc(-c3ccc(Oc4ccccc4)cc3)c3c(N)ncnc32)C1` (centres unmarked) [Compound 8b, Methyl 4-(3-(4-Amino-3-(4-phenoxyphenyl)-1H-pyrazolo[3,4-d]pyrimidin-1-yl)piperidin-1-yl)-2-(methylsulfonyl)pyrimidine-5-carboxylate], the difference in %Control from compound Ib at 1 µM on FLT3 (@1000nM) is 47%. Also, the remaining binding at 1 µM on FLT3 (@1000nM, read-out: %Control) was found to be 80%; on FLT3 (read-out: %Control @1000nM), 80%; at PYK2 (@1000nM, read-out: %Control), 85%; at PYK2 (read-out: %Control @1000nM), 85%; on KIT(L576P) (@1000nM, read-out: %Control), 56%; on KIT(L576P) (read-out: %Control @1000nM) it was 56%. Further, the remaining binding at 1 µM on KIT(V559D) (@1000nM, read-out: %Control) was determined as 75%; on KIT(V559D) (read-out: %Control @1000nM), 75%; on CSF1R (@1000nM, read-out: %Control), 92%; at CSF1R (read-out: %Control @1000nM) it was 92%; on SYK (@1000nM, read-out: %Control), 78%; on SYK (read-out: %Control @1000nM), 78%. Moreover, the remaining binding at 1 µM on KIT(V559D,T670I) (@1000nM, read-out: %Control) was 92%; on KIT(V559D,T670I) (read-out: %Control @1000nM) it was 92%; on TEC (@1000nM, read-out: %Control), 32%; on TEC (read-out: %Control @1000nM) it was 32%. For the same compound, the difference in %Control versus Ib at 1 µM at KIT(L576P) (@1000nM) came out at 24%. The induction of apoptosis result with TMD8 cells is listed as “induced apoptosis”. The difference in %Control versus compound Ib at 1 µM at CSF1R (@1000nM) was 12%; at SYK (@1000nM) it was -13%; at KIT(V559D,T670I) (@1000nM) it was 24%.

Consider `CCOC(=O)c1cnc(S(C)(=O)=O)nc1N1CCC[C@@H](n2nc(-c3ccc(Oc4ccccc4)cc3)c3c(N)ncnc32)C1` [Compound 8c, Ethyl (R)-4-(3-(4-Amino-3-(4-phenoxyphenyl)-1H-pyrazolo[3,4-d]pyrimidin-1-yl)piperidin-1-yl)-2-(methylsulfonyl)pyrimidine-5-carboxylate], for which the difference in %Control from compound Ib at 1 µM at FLT3 (@1000nM) stood at 60%. Also, the remaining binding at 1 µM came to 93% on FLT3 (@1000nM, read-out: %Control); 93% at FLT3 (read-out: %Control @1000nM); 81% on PYK2 (@1000nM, read-out: %Control); 81% at PYK2 (read-out: %Control @1000nM); 64% on KIT(L576P) (@1000nM, read-out: %Control); 64% on KIT(L576P) (read-out: %Control @1000nM). For the same compound, the remaining binding at 1 µM at KIT(V559D) (@1000nM, read-out: %Control) is 70%; at KIT(V559D) (read-out: %Control @1000nM), 70%; on CSF1R (@1000nM, read-out: %Control) it was 96%; at CSF1R (read-out: %Control @1000nM), 96%; on SYK (@1000nM, read-out: %Control), 100%; at SYK (read-out: %Control @1000nM), 100%. Also, the remaining binding at 1 µM at KIT(V559D,T670I) (@1000nM, read-out: %Control) was found to be 34%; at KIT(V559D,T670I) (read-out: %Control @1000nM), 34%; at TEC (@1000nM, read-out: %Control) it was 53%; on TEC (read-out: %Control @1000nM) it was 53%. The difference in %Control versus Ib at 1 µM at KIT(L576P) (@1000nM) turned out to be 32%. The induction of apoptosis result in the test with TMD8 cells is “essentially inactive”. Further, the difference in %Control versus compound Ib at 1 µM at CSF1R (@1000nM) is 16%; at SYK (@1000nM), 9%; at KIT(V559D,T670I) (@1000nM), -34%.
